The numbers were not newly measured in publication PMC2805559 (Journal of medicinal chemistry, 2009), which cites them from elsewhere.

One series concerns Hsp90-IP6K2 interaction. The note with it: ref [16].
The next series concerns tumor. The note with it: ref [1].

Consider `C=CCNC1=C2C[C@@H](C)C[C@H](OC)[C@H](O)[C@@H](C)/C=C(\C)[C@H](OC(N)=O)[C@@H](OC)/C=C\C=C(/C)C(=O)NC(=CC1=O)C2=O` [17-AAG, 17-allylamino, 17-demethoxygeldanamycin], for which, in the series on Hsp90-IP6K2 interaction, the “effect on binding of IP6K2 to Hsp90” value is “does not affect the binding”. In the case of Sansalvamide A, the anti-tumor activity result in the series on tumor was “micromolar potency”.
